Experimental findings from patent US10611740B2, “Aryl dihydro-2H-benzo[b][1,4]oxazine sulfonamide and related compounds for use as agonists of RORγ and the treatment of disease” (Lycera Corporation, priority 2015, dated 2020) are described below.

One test addresses T1, RORγ-LBD (Homo sapiens, UniProt P51449).
T1 construct: made in house; host or cells: SF9 cells (baculovirus)
T1 sequence (P51449 269-508 limits assumed): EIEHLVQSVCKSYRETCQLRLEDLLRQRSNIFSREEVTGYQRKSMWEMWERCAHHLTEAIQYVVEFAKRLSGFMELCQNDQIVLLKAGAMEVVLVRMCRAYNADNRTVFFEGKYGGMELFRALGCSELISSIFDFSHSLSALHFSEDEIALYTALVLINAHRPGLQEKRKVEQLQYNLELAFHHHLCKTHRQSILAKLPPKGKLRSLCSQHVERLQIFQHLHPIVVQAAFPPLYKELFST
The experiment in a line: RORγ-Ligand Binding Domain (LBD) TR-FRET Assay.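 For TR-FRET Assay Max Response: 665/615 nm ratio relative to signal without ursolic acid or compound set at 100.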 It counts as biochemical. Summed up:
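TR-FRET read-out using a biotin-tagged SRC1 coactivator LXXLL peptide (200 nM final), with the antagonist ursolic acid present at 2 μM final. Receptor is His-tagged LBD expressed in SF9 cells, ~3 nM final in pH 7.0 Tris/KCl/EDTA/DTT/BSA buffer; compounds in 1% DMSO final.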

The target of the next test is T2, Gal4-RORγ-LBD (Homo sapiens, UniProt P51449).
T2 construct: expressed in transfected cells; host or cells: HEK-293 cells (pcDNA3.1neo plasmid)
T2 sequence (P51449 269-508 limits assumed): T1 sequence (P51449 269-508 limits assumed)
Description: Gal4-RORγ Luciferase Reporter Assay in HEK-293T Cells. It is filed as cell-based. To be noted: HEK-293 cells. Summed up: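 Luminescence read-out (One-Glo, 10 min RT) after overnight compound exposure at 37 °C in HEK-293 cells carrying Gal4-RORγ-LBD plus a Gal4-luciferase reporter, in the presence of 2 μM ursolic acid. Max Response is the upper plateau from a 4-parameter logistic fit, normalized to untreated signal = 100.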
A general note: Reporter assays use an easily measured gene product as a stand-in for the process of interest.

[1] abbreviates: luciferase reporter, with 2 μM ursolic acid.

Broadly, the pEC50 is the EC50 on a negative log10 scale, so that one unit is a factor of ten. A high value points to a low EC50.

pEC50: −log10 of the molar value. Some results are limits rather than exact numbers.

`O=C(CC1CC1)NC[C@H]1CN(S(=O)(=O)c2cccc(C(F)(F)F)c2)c2cc(-c3cc(F)ccc3F)ccc2O1` [Compound 30AB, (S)-2-cyclopropyl-N-((6-(2,5-difluorophenyl)-4-((3-(trifluoromethyl)phenyl)sulfonyl)-3,4-dihydro-2H-benzo[b][1,4]oxazin-2-yl)methyl)acetamide]: on RORγ-LBD, the pEC50 is > 6.30 and the “TR-FRET Assay Max Response” value is “**** (The symbol “****” indicates a value greater than 200)”. Further, at Gal4-RORγ-LBD (setting [1]), the pEC50 was > 6.30 and the “Gal4-RORγ Assay Max Response” value is “* (The symbol “*” indicates a value in the range of 25 to 90)”.

For `Cc1cc(Cl)cc(-c2ccc3c(c2)N(S(=O)(=O)c2cccc(C(F)(F)F)c2)C[C@H](CC2(C(=O)O)CCOCC2)O3)c1` [Compound 78B, (S)-4-((6-(3-chloro-5-methyl-phenyl)-4-((3-(trifluoromethyl)-phenyl)sulfonyl)-3,4-dihydro-2H-benzo[b][1,4]oxazin-2-yl)methyl)tetrahydro-2H-pyran-4-carboxylic acid], on RORγ-LBD, the pEC50 is > 6.30 and the “TR-FRET Assay Max Response” value was “** (The symbol “**” indicates a value in the range of greater than 90 to 150)”. Also, at Gal4-RORγ-LBD (2 μM ursolic acid), the pEC50 was > 6.30 and the “Gal4-RORγ Assay Max Response” value is listed as “** (The symbol “**” indicates a value in the range of greater than 90 to 150)”.

With `Cc1c(F)cccc1-c1ccc2c(c1)N(S(=O)(=O)c1cccc(C(F)(F)F)c1)C[C@H](CCC(=O)O)O2` [Compound 4AG, (S)-3-(6-(3-fluoro-2-methylphenyl)-4-((3-(trifluoromethyl)phenyl)sulfonyl)-3,4-dihydro-2H-benzo[b][1,4]oxazin-2-yl)propanoic acid], at RORγ-LBD, the pEC50 was > 6.30 and the “TR-FRET Assay Max Response” value is listed as “**** (The symbol “****” indicates a value greater than 200)”. Moreover, at Gal4-RORγ-LBD (setting [1]), the pEC50 is > 6.30 and the “Gal4-RORγ Assay Max Response” value is recorded as “** (The symbol “**” indicates a value in the range of greater than 90 to 150)”.

For `O=C(NC[C@H]1CN(S(=O)(=O)c2cccc(C(F)(F)F)c2)c2cc(-c3cc(F)ccc3F)ccc2O1)C1CCCC1` [Compound 30AZ, (S)-N-((6-(2,5-difluorophenyl)-4-((3-(trifluoromethyl)phenyl)-sulfonyl)-3,4-dihydro-2H-benzo-[b][1,4]oxazin-2-yl)methyl)-cyclopentanecarboxamide], at RORγ-LBD, the pEC50 is > 6.30 and the “TR-FRET Assay Max Response” value is “**** (The symbol “****” indicates a value greater than 200)”. Besides, on Gal4-RORγ-LBD (setting [1]), the pEC50 was > 6.30 and the “Gal4-RORγ Assay Max Response” value is recorded as “** (The symbol “**” indicates a value in the range of greater than 90 to 150)”.

Consider `O=C1CC(C(=O)NC[C@H]2CN(S(=O)(=O)c3cccc(C(F)(F)F)c3)c3cc(-c4cc(F)ccc4F)ccc3O2)C1` [Compound 30AA, (S)-N-((6-(2,5-difluorophenyl)-4-((3-(trifluoromethyl)phenyl)-sulfonyl)-3,4-dihydro-2H-benzo[b][1,4]oxazin-2-yl)methyl)-3-oxocyclobutane-1-carboxamide], for which, on RORγ-LBD, the pEC50 is > 6.30 and the “TR-FRET Assay Max Response” value was “**** (The symbol “****” indicates a value greater than 200)”. At Gal4-RORγ-LBD (setting [1]), the negative-log EC50 (pEC50) is > 6.30 and the “Gal4-RORγ Assay Max Response” value is given as “* (The symbol “*” indicates a value in the range of 25 to 90)”.

In the case of `COc1cccc(-c2cc3c(cc2Cl)O[C@@H](CCC(=O)O)CN3S(=O)(=O)c2cccc(C(F)(F)F)c2)c1` [Compound 22C, (S)-3-(7-chloro-6-(3-methoxyphenyl)-4-((3-(trifluoromethyl)phenyl)sulfonyl)-3,4-dihydro-2H-benzo[b][1,4]-oxazin-2-yl)propanoic acid], at RORγ-LBD, the negative-log EC50 (pEC50) was > 6.30 and the “TR-FRET Assay Max Response” value is “**** (The symbol “****” indicates a value greater than 200)”. Also, on Gal4-RORγ-LBD (setting [1]), the pEC50 is > 6.30 and the “Gal4-RORγ Assay Max Response” value is recorded as “** (The symbol “**” indicates a value in the range of greater than 90 to 150)”.
